# Experimental data taken from publication PMC7044277 (Nature Communications, 2020).
# Values joined by “and” are separate entries in the source; they are usually repeats but may differ in a detail not shown here. Equal values may be shown once.
# Tests used:
# Type in all cases: cell-based
# 320 non-olfactory GPCRs [1] = target: T1, 320 non-olfactory GPCRs (Homo sapiens, UniProt P23945)
# T1 construct: expressed in transfected cells; host or cells: HTLA cells
# 320 non-olfactory GPCRs [2] = target: T2, 320 non-olfactory GPCRs (Homo sapiens, UniProt P51677)
# T2 construct: expressed in transfected cells; host or cells: HTLA cells
# T2 sequence (P51677 whole entry): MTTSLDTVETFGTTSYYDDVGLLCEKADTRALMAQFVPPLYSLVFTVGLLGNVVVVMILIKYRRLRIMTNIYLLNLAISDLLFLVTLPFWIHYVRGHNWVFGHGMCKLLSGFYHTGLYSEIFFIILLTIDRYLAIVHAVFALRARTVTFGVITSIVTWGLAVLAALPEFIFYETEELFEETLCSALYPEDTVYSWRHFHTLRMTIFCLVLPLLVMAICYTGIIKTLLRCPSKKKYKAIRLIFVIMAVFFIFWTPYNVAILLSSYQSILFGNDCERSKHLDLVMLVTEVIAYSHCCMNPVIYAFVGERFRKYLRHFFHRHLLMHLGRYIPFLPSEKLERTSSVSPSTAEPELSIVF
# 320 non-olfactory GPCRs [3] = target: 320 non-olfactory GPCRs (Homo sapiens, UniProt Q15743); details: receptor GPR68 no V2 Tail; replicate values, Fig_4g
# Chain of 320 non-olfactory GPCRs (Homo sapiens, UniProt Q15743) (Q15743 whole entry): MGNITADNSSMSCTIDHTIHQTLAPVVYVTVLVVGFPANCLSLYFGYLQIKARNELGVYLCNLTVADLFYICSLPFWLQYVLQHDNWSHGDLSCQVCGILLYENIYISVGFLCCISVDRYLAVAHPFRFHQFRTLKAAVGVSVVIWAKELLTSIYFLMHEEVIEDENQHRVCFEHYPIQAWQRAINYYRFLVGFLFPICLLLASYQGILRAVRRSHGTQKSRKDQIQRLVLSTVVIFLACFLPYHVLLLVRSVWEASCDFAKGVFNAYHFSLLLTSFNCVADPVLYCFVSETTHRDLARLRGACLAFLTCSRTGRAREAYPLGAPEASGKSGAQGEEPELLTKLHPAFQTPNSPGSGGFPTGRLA
# 320 non-olfactory GPCRs [4] = target: T3, 320 non-olfactory GPCRs (Homo sapiens, UniProt Q96P68); details: receptor OXGR1; replicate values, Fig_4g
# T3 construct: expressed in transfected cells; host or cells: HTLA cells
# 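Throughout, for Fold of Basal: compound tested at 1 µM final concentration.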
# 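Throughout, for GPCRome agonism screen response: fold over basal response of each receptor without drug.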
# T1 sequence (P23945 18-695): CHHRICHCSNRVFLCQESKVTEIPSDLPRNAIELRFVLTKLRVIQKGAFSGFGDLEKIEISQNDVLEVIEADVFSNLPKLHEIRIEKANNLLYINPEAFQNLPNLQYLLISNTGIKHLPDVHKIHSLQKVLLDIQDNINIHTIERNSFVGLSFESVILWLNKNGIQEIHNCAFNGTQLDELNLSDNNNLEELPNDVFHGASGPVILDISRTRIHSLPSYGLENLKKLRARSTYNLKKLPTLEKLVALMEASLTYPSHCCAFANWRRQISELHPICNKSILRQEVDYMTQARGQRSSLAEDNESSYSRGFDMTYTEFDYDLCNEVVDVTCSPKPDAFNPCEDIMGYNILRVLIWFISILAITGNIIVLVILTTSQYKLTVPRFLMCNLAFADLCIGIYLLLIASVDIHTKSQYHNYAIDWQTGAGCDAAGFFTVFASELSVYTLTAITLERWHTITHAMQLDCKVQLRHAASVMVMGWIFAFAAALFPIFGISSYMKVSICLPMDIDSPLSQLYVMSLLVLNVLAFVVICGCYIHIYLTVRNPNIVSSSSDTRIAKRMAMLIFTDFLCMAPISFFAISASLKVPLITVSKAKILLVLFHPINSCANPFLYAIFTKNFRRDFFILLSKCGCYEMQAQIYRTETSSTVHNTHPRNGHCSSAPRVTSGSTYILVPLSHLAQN
smiles,measurement,setting,value
CCOc1cccc2cc(C(C)NCC3(O)CCCCC3)oc12 (stereo not shown) [O4LE6],Fold of Basal,320 non-olfactory GPCRs [1],0.5729 and 0.6139 and 0.617 and 0.5943
same,Fold of Basal,320 non-olfactory GPCRs [2],1.539 and 1.182 and 0.9454 and 0.9656
same,GPCRome agonism screen response,320 non-olfactory GPCRs [3],1.945 and 0.5249 and 1.001 and 1.345
same,GPCRome agonism screen response,320 non-olfactory GPCRs [4],1.363 and 1.785 and 0.5079 and 1.083
